Reference: patent US11149047B2, “Aryl imidazoles for treatment of cancer” (Aptose Biosciences Inc., priority 2017, dated 2021)

Legend:
[1] = system: H3K27ac at the MYC promoter in MV4-11 cells; experiment: ChIP-qPCR for H3K27ac; format: cell-based; details: 500 nmol/L
Protocol: MV4-11 cells were treated with vehicle DMSO or 500 nmol/L COMPOUND I for 2, 6, or 24 hours and then crosslinked with 1% formaldehyde. Chromatin was extracted by sonication and then incubated with H3K27ac (Active Motif #39133) antibody overnight. The antibody:DNA complexes were isolated with Protein G beads (Invitrogen Dynabeads catalog #10004D) and analyzed by qPCR with primers specific to the MYC promoter (Table 7). H3K27ac enrichment was calculated as fold over input DNA control.
Regulation of MYC expression is a complex process that involves MYC transcription, mRNA stability, and protein turnover. ChIP-qPCR analysis for H3K27ac, a well-established marker of active chromatin, was performed to assess transcriptional competency of the MYC gene promoter after treatment with COMPOUND I (FIG. 19D). […] To determine whether COMPOUND I affected MYC mRNA stability, an RNA decay assay was performed on EOL-1 cells.

Raji cells = experiment: Cellular pharmacology: intracellular accumulation and efflux by LC-MS/MS; format: in vitro ADME, human
Protocol: (§1) Cells exposed to COMPOUND I or Fe(COMPOUND I)3 were homogenized in acetonitrile containing 5 ng of a deuterated COMPOUND I standard. Samples were analyzed at the UCSD Molecular Mass Spectrometry Facility employing an Agilent 1260 liquid chromatograph (LC) system coupled with a Thermo LCQdeca mass spectrometer using positive ion mode electrospray ionization (ESI) as the ion source. The ESI ion source voltage was set at 5 kV, with sheath gas flow rate of 80 units, auxiliary gas flow rate of 20 units, and capillary temperature of 250° C., respectively. A Phenomenex Kinetex Biphenyl column (ID 2.1 mm×length 50 mm, particle size 2.6 μm) was utilized for LC separation using water with 0.1% formic acid as the mobile phase A and acetonitrile with 0.1% formic acid as the mobile phase B. The LC flow rate was set at 0.30 mL/min. The LC gradient increased from 5% mobile phase B to 95% mobile phase B in 10 minutes, held at 95% B for 2 minutes, returned to 5% B in 1 minute, and then held at 5% B for 6 minutes. […] Selected reaction monitoring (SRM) mode was used to acquire the m/z 353 and m/z 359 fragmental peaks. The SRM peak area ratio (COMPOUND I/COMPOUND I-d6) related to the amount of spiked COMPOUND I-d6 was used for the quantification of COMPOUND I and Fe(COMPOUND I)3 in the samples. The same column, gradient and flow rate were used for detection of Fe(COMPOUND I)3 which was detected using an Agilent 1100 HPLC and Orbitrap XL (Thermo) mass spectrometer employing a Thermo IonMax ESI interface. The Fe(COMPOUND I)3 eluted around 11.5 minutes with these conditions. A 10:1 flow split was used for the eluent flow rate of 0.3 mL/min, so that approximately 0.030 mL/min was introduced into the ESI after the split. […]
For this reason, Raji Burkitt's lymphoma cells were selected for study of the cellular pharmacology of COMPOUND I. The intracellular accumulation of COMPOUND I in the Raji cells was quantified by liquid chromatography tandem mass spectroscopy (LC-MS/MS). […]

[2] = system: MV4-11, EOL1, or KG-1 cells; experiment: Detection of reactive oxygen species (molecular sensors, GSH changes); format: cell-based
Description: In addition, cells harboring BRCA1/2 mutations are hypersensitive to COMPOUND I, further supporting a role for DNA damage in COMPOUND I mechanism of action. COMPOUND I consistently produced upregulation of CDKN1A, which mediates arrest in G0-G1. In addition, CDKN1A can be induced after DNA double-strand breaks to block cell-cycle progression to allow for sufficient time to repair DNA. In combination with CDKN1A induction, COMPOUND I increased KLF4 gene expression in many AML cell lines, which is known to regulate CDKN1A as part of the G1 cell-cycle checkpoint. […] The role of KLF4 in COMPOUND I mechanism of action is of interest for future studies.

Raji/COMPOUND IR cells = experiment: Cellular pharmacology: intracellular accumulation and efflux by LC-MS/MS; format: in vitro ADME, human
Protocol: as §1
Resistance in the Raji/COMPOUND IR cells may be due to alterations in influx or efflux, intracellular detoxification or a change in the primary target of the drug. The intracellular accumulation of both native COMPOUND I and the Fe(COMPOUND I)3 in Raji and Raji/COMPOUND IR cells incubated with either native COMPOUND I or the Fe(COMPOUND I)3 complex was monitored.

[3] = system: BIK, BAD, MCL-1 in Raji cells; experiment: Western blot of proteins involved in apoptosis; format: cell-based, human; details: 0.5 μM, 24 h, n=3

Cc1[nH]c2ccc(F)cc2c1-c1nc2c3cccnc3c3ncccc3c2[nH]1 [COMPOUND I, 2-(5-fluoro-2-methyl-1H-indol-3-yl)-1H-imidazo[4,5-f][1,10]phenanthroline]
earliest time a decrease in H3K27ac at the MYC promoter was observed [1]: 2 h | time at which cellular content approaches steady-state (Raji cells; Raji cells, FIG. 6A): ~6 h | Rate of efflux over first 2 hours (Raji cells; Raji cells, mean ± SEM, n = 6): −0.19 ± 0.025 log fmole/10^7 cells/h | intracellular Zn chelate (Raji cells; cells exposed to COMPOUND I): a Zn chelate was not detectable | generation of reactive oxygen species [2]: no such species have been detected | rate of accumulation in Raji/COMPOUND IR vs Raji cells (Raji/COMPOUND IR cells; 0.5 μM, FIG. 6A, 6B): severely reduced | Rate of efflux over first 2 hours (Raji/COMPOUND IR cells; Raji/COMPOUND IR cells, mean ± SEM, n = 6): −0.26 ± 0.025 log fmole/10^7 cells/h | difference in efflux over first 2 h between Raji and Raji/COMPOUND IR (Raji/COMPOUND IR cells; after loading of the cells): no apparent difference in the efflux | BAD increase vs DMSO control [3]: 2.1±0.25 fold | BIK increase vs DMSO control [3]: 47.5±16.8% | MCL-1 decrease vs DMSO control [3]: 38.1±2.3%
